The source of these data is ChEMBL document CHEMBL1201862, “PubChem BioAssay data set” (2004).

SMILES strings stand for the structures.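 Test compounds were applied to cells in 96-well plates for 48 hours at 5 doses. At the GI50, growth is halved.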 Active and inactive are the calls of the source. Cut-off read from the data, not from the text of the source: active = GI50 up to about 1.1 µM and inactive = higher.

Some test systems named below: UACC-62; HOP-92; SF-268; UO-31; EKVX; SNB-75; COLO 205; DMS-273; SN12C; TK-10; HCC 2998; SF-295; NCI-H23; HCT-116; CCRF-CEM; MDA-N; RXF 393; SNB-78; LXFL 529; KM-20L2.
Assay in all cases: DTP human tumour cell line panel, 48 h

What is called GI50 is the concentration giving 50% growth inhibition. Turning to `COc1cccc2c1C(=O)c1c(O)c3c(c(O)c1C2=O)C[C@@](O)(C(C)=O)C[C@@H]3OC1OC(C)C(O)C(N)C1Br` (stereo not given in full), the 50% growth inhibitory concentration (GI50) in the experiment on UACC-62 was 105 nM (active); in the experiment with HOP-92, 48.6 nM (active); with SF-268, 101 nM (active); in the experiment with UO-31 it was 95.3 nM (active); with EKVX, 805 nM (active); in the experiment with SNB-75 it was 2.9 nM (active). For the same compound, the GI50 in the experiment with COLO 205 is 418 nM (active); with DMS-273, 7.8 nM (active); with SN12C, 28.1 nM (active); in the experiment on TK-10 it was 158 nM (active); with HCC 2998, 111 nM (active); in the experiment on SF-295, 44.2 nM (active). The GI50 in the experiment on NCI-H23 was 27 nM (active); with HCT-116 it was 7.92 nM (active); in the experiment on CCRF-CEM, 4.14 nM (active); in the experiment on MDA-N, 208 nM (active); with RXF 393, 213 nM (active); in the experiment on SNB-78, 105 nM (active). The GI50 with LXFL 529 is 60.1 nM (active); in the experiment on KM-20L2, 232 nM (active).

For the compound `CCCCC(=O)OC[n+]1ccc2c(C)c3[nH]c4ccccc4c3c(C)c2c1`, the GI50 in the experiment with UACC-62 is 1260 nM (inactive); in the experiment with HOP-92, 1620 nM (inactive); in the experiment with SF-268 it was 460 nM (active); in the experiment on UO-31, 701 nM (active); in the experiment on EKVX it was 497 nM (active); in the experiment with SNB-75 it was 1280 nM (inactive). Also, the GI50 in the experiment on COLO 205 was 535 nM (active); with DMS-273, 147 nM (active); in the experiment on SN12C, 376 nM (active); with TK-10 it was 1210 nM (inactive); in the experiment on HCC 2998, 433 nM (active); with SF-295, 676 nM (active). Also, the GI50 was 140 nM (active) in the experiment with NCI-H23; 221 nM (active) with HCT-116; 43.2 nM (active) in the experiment on CCRF-CEM; 484 nM (active) in the experiment on MDA-N; 297 nM (active) in the experiment on RXF 393; 796 nM (active) in the experiment with SNB-78. For the same compound, the GI50 in the experiment with LXFL 529 is 855 nM (active); in the experiment with KM-20L2, 687 nM (active).
